Holding throughout (assay type): cell-based
Test [1] concerns p-p70 S6 Kinase (Thr389) in MCF-7 cells. The test is described as follows: AlphaLISA Ultra pS6K1 assay. Particulars: Homo sapiens, 1.5 h; MCF7 cells, 90 min. The method in brief:
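MCF-7 cells seeded 20–24 h, given fresh medium 2 h, then treated with compounds 90 min (0.5% DMSO final). Cells lysed, lysates frozen at −80 °C, then Thr389-phosphorylated S6K1 detected by AlphaLISA Ultra with acceptor beads 2 h, then donor beads 2 h.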
For orientation: Bead proximity is the source of the signal in Alpha formats.

Test [2] has as its system p-Akt 1/2/3 (Ser473) in MCF-7 cells. The test is described as follows: AlphaLISA Ultra pAKT assay. The settings on record: Homo sapiens, 1.5 h; MCF7 cells, 90 min. Here is the method:
Example 56: AlphaLISA Ultra pAKT Assay
Assay Protocol: • 1. MCF-7 cells in Corning 3701 plate and incubate for 20˜24 hour. 16,000˜20,000 cells will be seeded in 36 μL medium per well. • 2. Change the culture medium with fresh medium and incubate for another 90 minutes. • 3. Add 12 μL (4×) compounds into the cell plate by HAMILTON. Final DMSO concentration is 0.5%. […] Aspirate 38 μL by HAMILTON, 10 μL rest per well. • 5. Add 10 μL 2× lysis buffer using HAMILTON; total volume in wells is 20 μL. Allow cells to shake for 30 min. Cover plate by plastic foil and store plate at −80° C. up to analysis. • 6. Thaw cell lysate at RT and transfer 10 μL lysate to assay plate (Optiplate-384). • 7. Add 5 μL acceptor beads into assay plate and incubation for 2 hours • 8. Add 5 μL donor beads and incubation for 2 hours • 9. Count the plate by EnSpire Multimode Plate Reader

The subject of a further test is mTORC1 over mTORC2. The test is described as follows: mTORC1 over mTORC2 selectivity by comparing pS6K1 and pAKT IC50. The settings on record: by comparing pS6K1 and pAKT IC50, 90 min. How it is done:
Assay Protocol: • 1. Seed MCF-7 cells in Corning 3701 plate and incubate for 20˜24 hour. 12,000˜16,000 cells will be seeded in 36 μL medium per well. • 2. Change the culture medium with fresh medium and incubate for another 2 hours. • 3. Add 12 μL (4×) compounds into the cell plate by HAMILTON. Final DMSO concentration is 0.5%. Incubate for 90 minutes. • 4. Aspirate 38 μL by HAMILTON, 10 μL rest per well. • 5. Add 10 μL 2× lysis buffer using HAMILTON; total volume in wells is 20 μL. Allow cells to shake for 30 min. Cover plate by plastic foil and store plate at −80° C. up to analysis. • 6. Thaw cell lysate at RT and transfer 10 μL lysate to assay plate (Optiplate-384). • 7. Add 5 μL acceptor beads into assay plate and incubation for 2 hours • 8. Add 5 μL donor beads and incubation for 2 hours • 9. Count the plate by EnSpire Multimode Plate Reader […]
Compounds that are not selective by comparing pS6K1 and pAKT IC50 by kinase assays are indicated by “NO” in the “mTORC1 selective @ 90 min” column of Table 4. […] Compounds that are not selective at the 24 hrs mark are indicated by “NO” in the “mTORC1 selective @ 24 hrs” column of Table 4. “N/A” stands for “not assayed” and “N/C” stands for “not calculated”.

The structures appear in SMILES notation. pIC50: −log10 of the molar value.

Turning to `CO[C@@H]1/C(C)=C/[C@@H](C)C(=O)C[C@@H]([C@H](C)C[C@@H]2CC[C@@H](OP(C)(C)=O)[C@H](OC)C2)OC(=O)[C@@H]2CCCCN2C(=O)C(=O)[C@]2(O)O[C@@H](CC[C@H]2C)C[C@H](OCC2COCCO2)/C(C)=C/C=C/C=C/[C@@H](C)C[C@@H](C)C(=O)[C@@H]1OC` (stereo partly drawn) [I-25, (27E,29E,31E,32E,35R,36S,37R,38R,40S,42S,44S,45S,47R,48R,57R)-45-[(1R)-2-[(1S,3R,4R)-4-dimethylphosphoryloxy-3-methoxy-cyclohexyl]-1-methyl-ethyl]-44-(1,4-dioxan-2-ylmethoxy)-57-hydroxy-47,48-dimethoxy-35,36,37,38,49,50-hexamethyl-68,69-dioxa-58-azatricyclohexatriaconta-27,29,31(49),32(50)-tetraene-51,52,53,54,55-pentone], the pIC50 in test [1] is 7.00 to 8.00; in test [2], at most 6.00. Besides, in the test with mTORC1 over mTORC2, the “mTORC1 selective @ 90 min” value is recorded as “Yes”.

For the compound `COCCOCCO[C@@H]1C[C@@H]2CC[C@@H](C)[C@@](O)(O2)C(=O)C(=O)N2CCCC[C@H]2C(=O)O[C@H]([C@H](C)C[C@@H]2CC[C@@H](OC)[C@H](OC)C2)CC(=O)[C@H](C)/C=C(\C)[C@@H](OC)[C@@H](OC)C(=O)[C@H](C)C[C@H](C)/C=C/C=C/C=C/1C` [I-30, (24E,26E,28E,29E,35R,36S,37R,38R,40S,42S,44R,45S,46R,47R,56R)-45-[(1R)-2-[(1S,3R,4R)-3,4-dimethoxycyclohexyl]-1-methyl-ethyl]-56-hydroxy-46,47-dimethoxy-44-[2-(2-methoxyethoxy)ethoxy]-35,36,37,38,48,49-hexamethyl-64,65-dioxa-57-azatricyclohexatriaconta-24,26,28(48),29(49)-tetraene-50,51,52,53,54-pentone], the figures for the pIC50 in test [1] and in test [2] were 7.00 to 8.00 and at most 6.00, respectively. Further, in the test on mTORC1 over mTORC2, the “mTORC1 selective @ 90 min” value was “Yes”.

On to `COCCOCCO[C@@H]1C[C@@H]2CC[C@@H](C)[C@@](O)(O2)C(=O)C(=O)N2CCCC[C@H]2C(=O)O[C@H]([C@H](C)C[C@@H]2CC[C@@H](OP(C)(C)=O)[C@H](OC)C2)CC(=O)[C@H](C)/C=C(\C)[C@@H](OC)[C@@H](OC)C(=O)[C@H](C)C[C@H](C)/C=C/C=C/C=C/1C` [I-33, (25E,27E,29E,30E,36R,37S,38R,39R,41S,43S,45R,46S,47R,48R,57R)-46-[(1R)-2-[(1S,3R,4R)-4-dimethylphosphoryloxy-3-methoxy-cyclohexyl]-1-methyl-ethyl]-57-hydroxy-47,48-dimethoxy-45-[2-(2-methoxyethoxy)ethoxy]-36,37,38,39,49,50-hexamethyl-66,67-dioxa-58-azatricyclohexatriaconta-25,27,29(49),30(50)-tetraene-51,52,53,54,55-pentone], for which the pIC50 in test [1] is 8.00 to 9.00; in test [2], at most 6.00. Besides, the “mTORC1 selective @ 90 min” value in the test on mTORC1 over mTORC2 is “Yes”.

Consider `COCCOCCO[C@@H]1C[C@@H]2CC[C@@H](C)[C@@](O)(O2)C(=O)C(=O)N2CCCC[C@H]2C(=O)O[C@H]([C@H](C)C[C@@H]2CC[C@@H](OCCO)[C@H](OC)C2)CC(=O)[C@H](C)/C=C(\C)[C@@H](OC)[C@@H](OC)C(=O)[C@H](C)C[C@H](C)/C=C/C=C/C=C/1C` [I-36, (23E,25E,27E,28E,36R,37S,38R,39R,41S,43S,45R,46S,47R,48R,57R)-57-hydroxy-46-[(1R)-2-[(1S,3R,4R)-4-(2-hydroxyethoxy)-3-methoxy-cyclohexyl]-1-methyl-ethyl]-47,48-dimethoxy-45-[2-(2-methoxyethoxy)ethoxy]-36,37,38,39,49,50-hexamethyl-66,67-dioxa-58-azatricyclohexatriaconta-23,25,27(49),28(50)-tetraene-51,52,53,54,55-pentone], for which the values for the pIC50 in test [1] and in test [2] were 8.00 to 9.00 and at most 6.00, respectively. Further, the “mTORC1 selective @ 90 min” value with mTORC1 over mTORC2 is recorded as “Yes”.

As a reminder, the pIC50 is the negative decadic logarithm of the IC50, by convention in mol/L. Higher therefore signals a low IC50.

The record behind these values is patent US20220267352A1, “RAPAMYCIN ANALOGS AND USES THEREOF” (Anakuria Therapeutics, Inc., priority 2021, published 2022).
